Experiments:
Acetylcholinesterase = Acetylcholinesterase (Electrophorus electricus, UniProt O42275); format: ADME
Description: Inhibition of electric eel AChE using acetylthiocholine iodide as substrate preincubated for 30 mins followed by substrate addition and measured after 30 mins by Ellman's method

PC-12 [1] = experiment: cells; format: functional; details: Rattus norvegicus
PC-12 [2] = experiment: cells; format: functional; details: Rattus norvegicus; remark: listed apart in the source
PC-12 [3] = experiment: cells; format: functional; details: Rattus norvegicus; remark: listed apart in the source
PC-12 [4] = experiment: cells; format: functional; details: Rattus norvegicus; remark: listed apart in the source
PC-12 [5] = experiment: cells; format: functional; details: Rattus norvegicus; remark: listed apart in the source
PC-12 [6] = experiment: Neuroprotective activity against H2O2 induced cytotoxicity in rat PC12 cells assessed as increase in cell viability pretreated for 3 hrs followed by H2O2 challenge measured after 24 hrs by MTT assay; format: functional, cell-based
Cholinesterase = Cholinesterase (Equus caballus, UniProt P81908)
Description: Inhibition of equine serum BuChE using S-butyrylthiocholine iodide as substrate preincubated with enzyme for 30 mins followed by substrate addition and measured after 30 mins by Ellman's method

[7] = n-Octanol-phosphate buffer partition co-efficient, log P of compound at pH 7.4 incubated for 48 hrs by UV spectrophotometry-based shake-flask method; format: physicochemical

Cholinesterase, sequence (P81908 whole entry): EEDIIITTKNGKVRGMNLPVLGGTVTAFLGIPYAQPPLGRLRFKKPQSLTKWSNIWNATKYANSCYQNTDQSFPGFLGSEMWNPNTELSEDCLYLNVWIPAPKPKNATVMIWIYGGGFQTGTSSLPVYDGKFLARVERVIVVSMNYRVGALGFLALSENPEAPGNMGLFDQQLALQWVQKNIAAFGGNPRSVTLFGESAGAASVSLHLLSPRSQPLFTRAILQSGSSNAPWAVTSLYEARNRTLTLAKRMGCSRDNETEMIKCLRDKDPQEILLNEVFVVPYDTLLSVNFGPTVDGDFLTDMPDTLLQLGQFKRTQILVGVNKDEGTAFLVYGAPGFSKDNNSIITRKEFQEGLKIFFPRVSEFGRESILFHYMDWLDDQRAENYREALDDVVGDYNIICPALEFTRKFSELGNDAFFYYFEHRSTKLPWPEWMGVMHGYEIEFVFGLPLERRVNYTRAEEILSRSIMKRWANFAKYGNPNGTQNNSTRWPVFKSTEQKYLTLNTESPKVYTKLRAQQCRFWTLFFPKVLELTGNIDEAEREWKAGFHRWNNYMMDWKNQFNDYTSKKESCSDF
Acetylcholinesterase, sequence (O42275 whole entry): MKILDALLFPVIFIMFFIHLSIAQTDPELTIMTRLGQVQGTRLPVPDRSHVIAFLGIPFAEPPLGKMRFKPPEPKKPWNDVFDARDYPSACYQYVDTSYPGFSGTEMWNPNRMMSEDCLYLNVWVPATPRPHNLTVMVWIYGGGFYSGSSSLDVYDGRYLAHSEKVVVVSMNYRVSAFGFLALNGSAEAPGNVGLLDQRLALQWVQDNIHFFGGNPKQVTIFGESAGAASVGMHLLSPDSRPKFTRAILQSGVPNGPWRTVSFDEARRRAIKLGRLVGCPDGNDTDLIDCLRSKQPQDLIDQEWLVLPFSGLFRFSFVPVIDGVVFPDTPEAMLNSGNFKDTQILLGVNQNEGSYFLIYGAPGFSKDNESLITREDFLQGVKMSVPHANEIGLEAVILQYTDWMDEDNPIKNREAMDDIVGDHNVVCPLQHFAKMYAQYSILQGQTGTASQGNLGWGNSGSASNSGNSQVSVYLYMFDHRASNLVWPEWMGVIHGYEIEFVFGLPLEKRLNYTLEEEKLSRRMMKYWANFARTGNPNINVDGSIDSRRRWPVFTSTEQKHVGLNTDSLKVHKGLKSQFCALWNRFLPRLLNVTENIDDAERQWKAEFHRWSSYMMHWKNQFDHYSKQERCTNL

| Structure (SMILES) | IC50 (Acetylcholinesterase) | viability at 1 µM (PC-12 [1]) | viability at 5 µM (PC-12 [2]) | viability at 10 µM (PC-12 [3]) | viability at 30 µM (PC-12 [4]) | viability at 50 µM (PC-12 [5]) | Activity (PC-12 [6]) | IC50 (Cholinesterase) | logD at 48 h [7] |
| --- | --- | --- | --- | --- | --- | --- | --- | --- | --- |
| CC(=O)c1ccc(S(=O)(=O)Nc2ccc3nc4n(c(=O)c3c2)CCc2c-4[nH]c3ccccc23)cc1 | > 100 µM | 46.7% | 48% | 54.4% | 57.7% | 59.8% | Dose-dependent effect | 25.8 µM | – |
| O=c1c2cc(NS(=O)(=O)c3ccc(OC(F)(F)F)cc3)ccc2nc2n1CCc1c-2[nH]c2ccccc12 | 34.6 µM | 51.6% | 55.9% | 60.1% | 61.8% | 63.8% | Dose-dependent effect | 3.95 µM | 3.62 |
| CC(C)(C)c1ccc(S(=O)(=O)Nc2ccc3nc4n(c(=O)c3c2)CCc2c-4[nH]c3ccccc23)cc1 | > 100 µM | 37.6% | 39.9% | 41.2% | 41.7% | 43.6% | – | 13 µM | – |
| O=c1c2cc(NS(=O)(=O)c3cccc(C(F)(F)F)c3)ccc2nc2n1CCc1c-2[nH]c2ccccc12 | > 100 µM | 49.1% | 50.7% | 53.2% | 53.5% | 55.9% | – | 3.82 µM | 3.01 |
| O=c1c2cc(NS(=O)(=O)c3c(Cl)cccc3Cl)ccc2nc2n1CCc1c-2[nH]c2ccccc12 | 100 µM | 40.7% | 42.1% | 42.9% | 45.4% | 48.3% | – | 13.7 µM | – |
| O=c1c2cc(NS(=O)(=O)c3ccc(F)cc3)ccc2nc2n1CCc1c-2[nH]c2ccccc12 | > 100 µM | 41.9% | 44.7% | 45.5% | 46.6% | 51.8% | – | 7.57 µM | 2.25 |
| O=c1c2cc(NS(=O)(=O)c3ccc(Br)cc3)ccc2nc2n1CCc1c-2[nH]c2ccccc12 | 40.4 µM | 39.9% | 41.8% | 44.1% | 45.4% | 47.6% | – | 8.94 µM | – |
| O=c1c2cc(NS(=O)(=O)c3ccc(F)c(Cl)c3)ccc2nc2n1CCc1c-2[nH]c2ccccc12 | 85.6 µM | 48.1% | 50.8% | 58.1% | 59.4% | 61.1% | Dose-dependent effect | 4.63 µM | 2.81 |
| O=c1c2cc(NS(=O)(=O)c3cccs3)ccc2nc2n1CCc1c-2[nH]c2ccccc12 | > 100 µM | 37.7% | 39.2% | 40.8% | 41.9% | 42.4% | – | > 100 µM | – |
| COC(=O)c1sccc1S(=O)(=O)Nc1ccc2nc3n(c(=O)c2c1)CCc1c-3[nH]c2ccccc12 | > 100 µM | 35.9% | 42.5% | 39.9% | 39.8% | 38% | – | > 100 µM | – |
| COc1ccc(S(=O)(=O)Nc2ccc3nc4n(c(=O)c3c2)CCc2c-4[nH]c3ccccc23)cc1OC | 51.2 µM | 40.4% | 44% | 45.2% | 47.7% | 51% | – | 10.9 µM | – |
| COc1cc2c(cc1OC)C(=O)C(CC1CCN(Cc3ccccc3)CC1)C2 (stereo unspecified) [DONEPEZIL] | – | 49.2% | 57.1% | 65.5% | 68.9% | 76.7% | – | – | – |
| O=c1c2cc(NS(=O)(=O)c3ccc(C(F)(F)F)cc3)ccc2nc2n1CCc1c-2[nH]c2ccccc12 | > 100 µM | 43.6% | 54.9% | 56.1% | 56.5% | 60.1% | Dose-dependent effect | 8.28 µM | 3.01 |
| COc1ccc(S(=O)(=O)Nc2ccc3nc4n(c(=O)c3c2)CCc2c-4[nH]c3ccccc23)c(OC)c1 | 77 µM | 49.6% | 51.1% | 52% | 56% | 51.1% | – | 7.58 µM | – |
| O=c1c(O)c(-c2ccc(O)c(O)c2)oc2cc(O)cc(O)c12 [QUERCETIN] | – | 48.9% | 56.3% | 57.9% | 60.6% | 62.7% | – | – | – |
| O=c1c2cc(NS(=O)(=O)c3ccc(Br)s3)ccc2nc2n1CCc1c-2[nH]c2ccccc12 | 83.4 µM | 52% | 52.3% | 55.1% | 56.2% | 58.2% | Dose-dependent effect | 60.3 µM | 2.91 |
| O=c1c2cc(NS(=O)(=O)c3ccc(Cl)s3)ccc2nc2n1CCc1c-2[nH]c2ccccc12 | > 100 µM | 43.5% | 48% | 55.1% | 56% | 54.5% | – | 76.9 µM | – |
| COc1ccc(S(=O)(=O)Nc2ccc3nc4n(c(=O)c3c2)CCc2c-4[nH]c3ccccc23)cc1 | > 100 µM | 39.3% | 51.8% | 42.3% | 43.2% | 49% | – | 8.01 µM | – |
| O=c1c2cc(NS(=O)(=O)c3ccc([N+](=O)[O-])cc3)ccc2nc2n1CCc1c-2[nH]c2ccccc12 | > 100 µM | 32.4% | 33% | 37.1% | 33.5% | 31% | – | 16.5 µM | – |
| O=c1c2cc(NS(=O)(=O)c3cc(Cl)cc(Cl)c3)ccc2nc2n1CCc1c-2[nH]c2ccccc12 | 84.4 µM | 42.4% | 45.3% | 47.9% | 59.6% | 69.5% | Dose-dependent effect | 7.94 µM | 3.21 |
| O=c1c2cc(NS(=O)(=O)c3cccc([N+](=O)[O-])c3)ccc2nc2n1CCc1c-2[nH]c2ccccc12 | > 100 µM | 27% | 38.7% | 40.9% | 34% | 25.6% | – | 23.3 µM | – |
